Experimental data published in patent US20020009482A1, “Proenergetic food supplement based on NADH, octocosanol and vitamin E” (priority 2000, published 2002).

Assay: Test for the stabilizing activity of Vitamin E on NADH (acid degradation in water at pH 4, 32° C.)
Format: physicochemical
Settings: within 20 minutes
Protocol: TEST FOR THE STABILIZING ACTIVITY OF VITAMIN E ON NADH Two beakers are prepared containing 50 g of water at a pH 4 and a constant temperature of 32° C. 10 mg of NADH are dissolved in the first beaker and agitate. The effect of the acidity deactivates the NADH, which splits up into NAD+H. Within 20 minutes, 9.5 mg of NADH are split-up, while 0.5 mg remain unchanged. In a second beaker […] of NADH and 5 mg of Vitamin E are dissolved. The effect of the acidity deactivates the NADH, which splits up into NAD+H. Within 20 minutes, 7.5 mg of NADH are split-up, while 2.5 mg of NADH remain unchanged. The parameters of pH 4 and 32° C. for a duration of 20 minutes has been chosen as the food supplement is to be assumed in the morning on an empty stomach, 30 minutes before breakfast. This leads the tablets to easily pass the physiological stomach barrier in 20 minutes, so as reach the first portion of the intestine, where it can be absorbed and enter the blood circulating system.

[1] = 20 mg NADH with 5 mg Vitamin E in 50 g water

NADH remaining unchanged (10 mg NADH alone in 50 g water): 0.5 mg
NADH split-up (into NAD+H) (10 mg NADH alone in 50 g water): 9.5 mg
NADH remaining unchanged [1]: 2.5 mg
NADH split-up (into NAD+H) [1]: 7.5 mg
SMILES: NC(=O)C1=CN([C@@H]2O[C@H](COP(=O)(O)OP(=O)(O)OC[C@H]3O[C@@H](n4cnc5c(N)ncnc54)[C@H](O)[C@@H]3O)[C@@H](O)[C@H]2O)C=CC1 [NADH, nicotinamide adenine dinucleotide in a reduced form]
